Experimental findings from ChEMBL document CHEMBL4811240, “Discovery of N-substituted sulfamoylbenzamide derivatives as novel inhibitors of STAT3 signaling pathway based on Niclosamide” (Eur J Med Chem, 2021) are described below.

Holding throughout (format): functional
The subject of one assay is MDA-MB-231. Kind of assay: Antiproliferative activity against human MDA-MB-231 cells assessed as inhibition of cell viability at 10 uM after 48 hrs by MTT assay relative to control. In general terms: Tetrazolium dyes change colour on reduction, which living cells bring about.
The next assay has as its system HCT-116. In words: Antiproliferative activity against human HCT116 cells assessed as inhibition of cell viability at 10 uM after 48 hrs by MTT assay relative to control.
The next assay deals with SW480. In words: Antiproliferative activity against human SW480 cells assessed as inhibition of cell viability at 10 uM after 48 hrs by MTT assay relative to control.
The next assay relates to L3.6pl. In words: Antiproliferative activity against human L3.6 cells assessed as inhibition of cell viability at 10 uM after 48 hrs by MTT assay relative to control.

As for `NS(=O)(=O)c1cc(C(=O)Nc2ccc(Cl)c(F)c2)ccc1Cl`, the inhibition – broadly, the change of the read-out against control, counted positive when it falls – at 10 µM in the assay on MDA-MB-231 turned out to be 43.7%; in the assay on HCT-116, 44.1%; with SW480, 48.1%; with L3.6pl, 26.4%.

Regarding `NS(=O)(=O)c1cccc(C(=O)Nc2cccnc2)c1`, the inhibition at 10 µM stood at 42.9% in the assay with MDA-MB-231, 8.11% in the assay on HCT-116, 28.3% with SW480 and 32.7% in the assay with L3.6pl.

Turning to `COc1cccc(C(=O)NS(=O)(=O)c2cc(C(=O)Nc3cc(OC)c(OC)c(OC)c3)ccc2Cl)c1`, the inhibition at 10 µM with MDA-MB-231 is 23.5%; with HCT-116, 21.3%; with SW480, 22%; in the assay on L3.6pl it was -0.51%.

Turning to `COc1cc(NC(=O)c2ccc(Cl)c(S(=O)(=O)NC(=O)c3ccc(Cl)nc3)c2)cc(OC)c1OC`, the inhibition at 10 µM is 5.01% in the assay with MDA-MB-231, -9.17% with HCT-116, 8.11% in the assay on SW480 and -15.7% with L3.6pl.

On to `COc1ccc(OC)c(NC(=O)c2cccc(S(N)(=O)=O)c2)c1`, for which the inhibition at 10 µM in the assay on MDA-MB-231 turned out to be 37%; in the assay on HCT-116 it was 46.4%; in the assay with SW480 it was 31.9%; with L3.6pl, 20.5%.

As for `NS(=O)(=O)c1cc(C(=O)Nc2cccc(C(F)(F)F)c2)ccc1Cl`, the inhibition at 10 µM worked out at 29% in the assay on MDA-MB-231, 41.4% with HCT-116, 42.9% in the assay with SW480 and 22.3% with L3.6pl.

Regarding `NC(N)=NS(=O)(=O)c1ccc(NC(=O)c2ccc(Cl)c(S(N)(=O)=O)c2)cc1`, the inhibition at 10 µM in the assay on MDA-MB-231 came to 46.4%; in the assay with HCT-116, 41.3%; with SW480 it was 27.3%; with L3.6pl it was 11.1%.

Regarding `COc1cc(NC(=O)c2ccc(Cl)c(S(=O)(=O)NC(=O)C=C(C)C)c2)cc(OC)c1OC`, the inhibition at 10 µM is 22.3% in the assay on MDA-MB-231, 20.1% in the assay with HCT-116, 22.6% in the assay with SW480 and -7.12% in the assay on L3.6pl.

In the case of `COc1cc(NC(=O)c2ccc(Cl)c(S(=O)(=O)NC(C)=O)c2)cc(OC)c1OC`, the inhibition at 10 µM in the assay on MDA-MB-231 is 19.4%; with HCT-116, 27.2%; in the assay on SW480, 19.5%; with L3.6pl, -15.2%.

Regarding `COc1ccc(OC)c(NC(=O)c2ccc(Cl)c(S(N)(=O)=O)c2)c1`, the inhibition at 10 µM stood at 26.7% with MDA-MB-231, 28.2% with HCT-116, 23.2% in the assay on SW480 and 24.2% in the assay with L3.6pl.

`NS(=O)(=O)c1cccc(C(=O)Nc2cccc(C(F)(F)F)c2)c1`: the inhibition at 10 µM with MDA-MB-231 turned out to be 27.2%; with HCT-116, 39.7%; with SW480, 34.4%; in the assay with L3.6pl, 9.27%.

Consider `NS(=O)(=O)c1cccc(C(=O)Nc2ccccc2C(F)(F)F)c1`, for which the inhibition at 10 µM with MDA-MB-231 stood at 42.8%; in the assay with HCT-116 it was 40.3%; in the assay with SW480, 24.8%; in the assay with L3.6pl, 21.9%.

As for `COc1cc(NC(=O)c2ccc(Cl)c(S(=O)(=O)NC(=O)c3c(OC)cccc3OC)c2)cc(OC)c1OC`, the inhibition at 10 µM with MDA-MB-231 was 18.1%; in the assay with HCT-116, 10.2%; in the assay with SW480, 30.6%; in the assay on L3.6pl it was 4.06%.

As to `COc1ccccc1C(=O)NS(=O)(=O)c1cc(C(=O)Nc2cc(OC)c(OC)c(OC)c2)ccc1Cl`, the inhibition at 10 µM with MDA-MB-231 was 13.1%; in the assay on HCT-116, 16.2%; in the assay on SW480 it was 33.9%; in the assay on L3.6pl, -18.3%.

As for `COc1ccc(NC(=O)c2ccc(Cl)c(S(N)(=O)=O)c2)cc1`, the inhibition at 10 µM in the assay with MDA-MB-231 was 30.9%; in the assay on HCT-116, 20.2%; in the assay on SW480, 31.9%; with L3.6pl it was 22.8%.

`COc1cc(CNC(=O)c2ccc(Cl)c(S(N)(=O)=O)c2)cc(OC)c1OC`: the inhibition at 10 µM in the assay on MDA-MB-231 amounted to 44.4%; in the assay on HCT-116, 34.3%; in the assay on SW480 it was 27.4%; in the assay with L3.6pl it was 38.2%.

`COc1cc(NC(=O)c2ccc(Cl)c(S(N)(=O)=O)c2)c(C(=O)O)cc1OC`: the inhibition at 10 µM with MDA-MB-231 amounted to 66.7%; with HCT-116, 47.2%; in the assay with SW480, 30.2%; in the assay on L3.6pl, 11.8%.

Regarding `NS(=O)(=O)c1cc(C(=O)Nc2ccccc2C(F)(F)F)ccc1Cl`, the inhibition at 10 µM in the assay on MDA-MB-231 was determined as 44.9%; in the assay on HCT-116, 45.4%; with SW480 it was 30.7%; in the assay on L3.6pl it was 21.2%.

In the case of `COc1ccc(C(=O)NS(=O)(=O)c2cc(C(=O)Nc3cc(OC)c(OC)c(OC)c3)ccc2Cl)cc1`, the inhibition at 10 µM was determined as 13.1% with MDA-MB-231, 4.8% in the assay with HCT-116, 20.1% with SW480 and 18.3% with L3.6pl.

Take `NS(=O)(=O)c1cccc(C(=O)Nc2ccc([N+](=O)[O-])cc2Cl)c1`: the inhibition at 10 µM with MDA-MB-231 was 43.2%; in the assay with HCT-116, 15.1%; with SW480 it was 44.1%; in the assay on L3.6pl, 21.3%.

As to `NS(=O)(=O)c1cc(C(=O)Nc2c(F)c(F)c(F)c(F)c2F)ccc1Cl`, the inhibition at 10 µM with MDA-MB-231 is 33.1%; with HCT-116 it was 34%; in the assay on SW480 it was 27.1%; in the assay on L3.6pl, 12.6%.

For `COc1cc(NC(=O)c2ccc(Cl)c(S(N)(=O)=O)c2)cc(OC)c1`, the inhibition at 10 µM in the assay with MDA-MB-231 amounted to 31.8%; in the assay on HCT-116 it was 42.5%; in the assay on SW480, 27.2%; in the assay on L3.6pl, 26.3%.

In the case of `COc1ccccc1NC(=O)c1ccc(Cl)c(S(N)(=O)=O)c1`, the inhibition at 10 µM in the assay with MDA-MB-231 was found to be 19.8%; in the assay on HCT-116, 37.3%; with SW480, 49.3%; with L3.6pl, 22.9%.

As to `COc1ccc(CNC(=O)c2ccc(Cl)c(S(N)(=O)=O)c2)cc1`, the inhibition at 10 µM in the assay with MDA-MB-231 is 54%; with HCT-116 it was 43.1%; in the assay on SW480 it was 16.2%; in the assay on L3.6pl it was 29%.

Regarding `CCC(=O)NS(=O)(=O)c1cc(C(=O)Nc2cc(OC)c(OC)c(OC)c2)ccc1Cl`, the inhibition at 10 µM amounted to 19.6% in the assay with MDA-MB-231, 27.2% in the assay with HCT-116, 21.3% in the assay on SW480 and 1.47% in the assay with L3.6pl.

Regarding `COc1ccccc1NC(=O)c1cccc(S(N)(=O)=O)c1`, the inhibition at 10 µM was determined as 27.1% with MDA-MB-231, 40.3% with HCT-116, 18.2% in the assay on SW480 and 9.7% in the assay on L3.6pl.

For `NS(=O)(=O)c1cc(C(=O)Nc2ccc(N3CCOCC3)cc2)ccc1Cl`, the inhibition at 10 µM in the assay with MDA-MB-231 is 43.3%; in the assay with HCT-116, 39.3%; in the assay with SW480, 21.9%; in the assay on L3.6pl it was 12.2%.

Consider `COc1cccc(NC(=O)c2ccc(Cl)c(S(N)(=O)=O)c2)c1`, for which the inhibition at 10 µM in the assay on MDA-MB-231 was 42.4%; with HCT-116 it was 43%; in the assay with SW480, 29.3%; in the assay on L3.6pl, 22.3%.

As for `CN1CCN(c2ccc(NC(=O)c3ccc(Cl)c(S(N)(=O)=O)c3)cc2)CC1`, the inhibition at 10 µM was 37.3% in the assay on MDA-MB-231, 40.5% in the assay on HCT-116, 38.3% with SW480 and 14.6% with L3.6pl.
